# Measurements from US20070149523A1, “Thiazole Analogues and Uses Thereof” (priority 2005, published 2007).
# Legend:
# PDGF-Rβ [1] = target: T1, PDGF-Rβ (Homo sapiens, UniProt P09619); test: In vitro protein kinase assay (radioisotopic 33P, FlashPlate); format: biochemical; parameters: made in house; host or cells: Sf9 insect cells (baculovirus); conditions: recombinant human kinase
# Description: (§1) The effect of the thiazole derivatives was tested on recombinant, human protein kinases in in vitro protein kinase assays.
# (§2) The protein kinases were expressed in Sf9 insect cells as human recombinant GST-fusion proteins or as His-tagged proteins by means of the baculovirus expression system.
# (§3) The kinase activity was measured with a radioisotopic protein kinase assay by measuring the incorporation of ^33P-phosphate into proteins or peptide substrates. The assays were performed in FlashPlate™ microtiter scintillation plates and incorporation of ^33P-phosphate was determined with a microplate scintillation counter.
# Target sequence in this assay (P09619 33-1106): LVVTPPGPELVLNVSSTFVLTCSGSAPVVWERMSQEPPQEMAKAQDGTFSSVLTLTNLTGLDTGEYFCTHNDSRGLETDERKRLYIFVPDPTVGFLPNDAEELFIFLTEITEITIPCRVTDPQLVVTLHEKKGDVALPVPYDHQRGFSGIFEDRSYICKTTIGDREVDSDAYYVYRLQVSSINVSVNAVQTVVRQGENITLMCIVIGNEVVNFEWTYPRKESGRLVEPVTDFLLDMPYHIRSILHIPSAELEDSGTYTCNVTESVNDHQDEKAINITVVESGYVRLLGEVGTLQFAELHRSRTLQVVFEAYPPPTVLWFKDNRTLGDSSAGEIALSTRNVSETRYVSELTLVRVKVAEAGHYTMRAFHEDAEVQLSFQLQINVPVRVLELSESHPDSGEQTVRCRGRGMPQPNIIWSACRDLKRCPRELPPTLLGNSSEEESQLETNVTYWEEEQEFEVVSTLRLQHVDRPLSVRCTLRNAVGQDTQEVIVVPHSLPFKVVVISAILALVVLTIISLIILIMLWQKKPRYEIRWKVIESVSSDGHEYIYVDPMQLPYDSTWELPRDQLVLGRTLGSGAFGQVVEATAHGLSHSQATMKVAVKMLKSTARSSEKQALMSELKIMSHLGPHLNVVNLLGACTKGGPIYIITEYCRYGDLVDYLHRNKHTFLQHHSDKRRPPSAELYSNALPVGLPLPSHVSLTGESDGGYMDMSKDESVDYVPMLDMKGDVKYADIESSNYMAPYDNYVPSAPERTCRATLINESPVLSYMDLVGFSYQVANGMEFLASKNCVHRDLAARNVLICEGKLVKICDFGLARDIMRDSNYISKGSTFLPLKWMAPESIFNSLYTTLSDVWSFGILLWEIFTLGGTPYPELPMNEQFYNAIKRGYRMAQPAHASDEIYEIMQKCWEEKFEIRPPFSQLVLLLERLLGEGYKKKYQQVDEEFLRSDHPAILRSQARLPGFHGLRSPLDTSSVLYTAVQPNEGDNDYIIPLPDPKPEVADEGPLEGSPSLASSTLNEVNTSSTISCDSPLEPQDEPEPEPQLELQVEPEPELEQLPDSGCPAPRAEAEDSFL
# VEGF-R2 [2] = target: T2, VEGF-R2 (Homo sapiens, UniProt P35968); test: as above; format: biochemical; parameters: made in house; host or cells: Sf9 insect cells (baculovirus); conditions: recombinant human kinase
# Description: as §1, §2, §3
# Target sequence in this assay (P35968 20-1356): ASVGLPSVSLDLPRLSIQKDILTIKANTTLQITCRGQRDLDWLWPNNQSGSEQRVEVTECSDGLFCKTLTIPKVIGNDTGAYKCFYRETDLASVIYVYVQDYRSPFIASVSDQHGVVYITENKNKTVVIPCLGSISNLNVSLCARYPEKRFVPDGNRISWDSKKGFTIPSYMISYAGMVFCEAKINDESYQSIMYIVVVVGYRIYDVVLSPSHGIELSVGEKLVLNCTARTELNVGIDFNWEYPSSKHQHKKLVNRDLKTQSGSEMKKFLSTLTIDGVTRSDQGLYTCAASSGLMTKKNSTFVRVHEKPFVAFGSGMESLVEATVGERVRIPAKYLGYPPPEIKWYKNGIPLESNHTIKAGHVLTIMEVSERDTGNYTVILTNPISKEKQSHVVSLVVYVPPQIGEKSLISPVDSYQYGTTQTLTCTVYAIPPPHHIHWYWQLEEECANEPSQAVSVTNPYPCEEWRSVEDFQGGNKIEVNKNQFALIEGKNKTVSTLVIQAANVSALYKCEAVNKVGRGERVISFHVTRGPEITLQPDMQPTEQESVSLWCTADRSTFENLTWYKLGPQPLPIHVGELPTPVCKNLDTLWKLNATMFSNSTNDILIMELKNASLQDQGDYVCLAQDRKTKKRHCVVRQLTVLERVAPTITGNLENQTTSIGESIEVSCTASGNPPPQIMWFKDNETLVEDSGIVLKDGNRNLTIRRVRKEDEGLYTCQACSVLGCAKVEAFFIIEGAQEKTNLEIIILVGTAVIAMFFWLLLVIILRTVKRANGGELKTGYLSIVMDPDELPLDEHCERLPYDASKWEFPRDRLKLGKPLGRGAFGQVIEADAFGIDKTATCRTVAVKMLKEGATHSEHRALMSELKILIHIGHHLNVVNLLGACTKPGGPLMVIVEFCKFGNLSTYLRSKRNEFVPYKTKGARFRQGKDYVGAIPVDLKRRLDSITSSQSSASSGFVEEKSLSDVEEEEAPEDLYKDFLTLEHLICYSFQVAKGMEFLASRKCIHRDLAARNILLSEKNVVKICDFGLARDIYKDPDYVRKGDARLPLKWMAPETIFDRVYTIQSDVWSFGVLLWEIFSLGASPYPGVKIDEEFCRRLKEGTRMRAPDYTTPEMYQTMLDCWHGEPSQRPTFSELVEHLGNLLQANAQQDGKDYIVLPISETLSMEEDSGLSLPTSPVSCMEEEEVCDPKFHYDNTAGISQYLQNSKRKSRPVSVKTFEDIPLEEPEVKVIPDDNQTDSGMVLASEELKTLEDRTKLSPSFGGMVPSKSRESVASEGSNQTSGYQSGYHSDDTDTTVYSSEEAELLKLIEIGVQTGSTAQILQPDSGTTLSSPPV
# Aurora B [3] = target: T3, Aurora B (Homo sapiens, UniProt Q96GD4); test: as above; format: biochemical; parameters: made in house; host or cells: Sf9 insect cells (baculovirus); conditions: recombinant human kinase
# T3 sequence (Q96GD4 whole entry): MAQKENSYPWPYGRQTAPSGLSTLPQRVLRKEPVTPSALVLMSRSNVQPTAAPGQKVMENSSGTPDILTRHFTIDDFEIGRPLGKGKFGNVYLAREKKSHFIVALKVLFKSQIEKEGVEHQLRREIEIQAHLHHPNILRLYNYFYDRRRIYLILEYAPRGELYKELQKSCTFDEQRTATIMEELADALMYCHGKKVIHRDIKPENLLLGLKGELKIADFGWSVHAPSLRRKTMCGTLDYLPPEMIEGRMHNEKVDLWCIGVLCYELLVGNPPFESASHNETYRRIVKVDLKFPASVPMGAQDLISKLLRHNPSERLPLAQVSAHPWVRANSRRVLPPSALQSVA
# Description: as §1, §2, §3
# FLT3 = target: T4, FLT3 (Homo sapiens, UniProt P36888); test: as above; format: biochemical; conditions: recombinant human kinase
# T4 construct: made in house; host or cells: Sf9 insect cells (baculovirus)
# T4 sequence (P36888 27-993): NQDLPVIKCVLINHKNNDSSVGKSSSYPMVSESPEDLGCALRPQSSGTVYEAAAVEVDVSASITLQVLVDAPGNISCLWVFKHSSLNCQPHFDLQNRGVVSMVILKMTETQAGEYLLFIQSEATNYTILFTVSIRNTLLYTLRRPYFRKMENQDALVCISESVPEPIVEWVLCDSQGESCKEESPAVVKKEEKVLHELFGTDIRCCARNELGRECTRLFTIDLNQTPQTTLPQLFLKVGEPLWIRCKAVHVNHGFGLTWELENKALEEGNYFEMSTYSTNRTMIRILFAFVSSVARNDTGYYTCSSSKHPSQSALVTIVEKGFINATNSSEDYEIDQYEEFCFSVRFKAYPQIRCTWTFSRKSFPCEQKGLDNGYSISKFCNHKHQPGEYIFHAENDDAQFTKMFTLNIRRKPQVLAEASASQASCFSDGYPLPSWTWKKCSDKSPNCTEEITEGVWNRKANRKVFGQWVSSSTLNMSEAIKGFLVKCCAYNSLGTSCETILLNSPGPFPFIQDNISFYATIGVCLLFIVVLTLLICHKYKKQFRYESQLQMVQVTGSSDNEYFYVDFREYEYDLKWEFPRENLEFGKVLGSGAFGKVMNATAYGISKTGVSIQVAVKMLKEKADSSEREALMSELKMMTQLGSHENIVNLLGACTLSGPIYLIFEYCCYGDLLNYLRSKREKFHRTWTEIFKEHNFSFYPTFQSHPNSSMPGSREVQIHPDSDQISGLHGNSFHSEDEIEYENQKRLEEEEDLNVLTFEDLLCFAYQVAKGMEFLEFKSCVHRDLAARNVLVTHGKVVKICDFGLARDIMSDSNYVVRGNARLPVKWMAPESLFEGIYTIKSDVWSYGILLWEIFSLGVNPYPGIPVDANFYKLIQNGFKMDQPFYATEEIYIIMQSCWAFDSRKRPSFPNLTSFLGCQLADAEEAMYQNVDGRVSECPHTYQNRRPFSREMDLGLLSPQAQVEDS
# Description: as §1, §2, §3
# Aurora A = target: T5, Aurora A (Homo sapiens, UniProt O14965); test: as above; format: biochemical; conditions: recombinant human kinase
# T5 construct: made in house; host or cells: Sf9 insect cells (baculovirus)
# T5 sequence (O14965 1-403): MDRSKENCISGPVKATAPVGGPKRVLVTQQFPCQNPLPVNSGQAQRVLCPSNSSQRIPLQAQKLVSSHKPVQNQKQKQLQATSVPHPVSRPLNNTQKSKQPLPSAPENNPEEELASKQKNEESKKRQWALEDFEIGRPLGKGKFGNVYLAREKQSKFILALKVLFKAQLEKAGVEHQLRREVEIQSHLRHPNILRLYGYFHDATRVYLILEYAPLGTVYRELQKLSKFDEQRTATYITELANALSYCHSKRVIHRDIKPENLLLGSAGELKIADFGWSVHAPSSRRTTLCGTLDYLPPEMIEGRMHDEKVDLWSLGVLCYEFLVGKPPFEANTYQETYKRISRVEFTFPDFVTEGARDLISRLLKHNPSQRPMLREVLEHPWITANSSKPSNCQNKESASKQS
# Description: as §1, §2, §3
# TIE2 = target: T6, TIE2 (Homo sapiens, UniProt Q02763); test: as above; format: biochemical; conditions: recombinant human kinase
# T6 construct: made in house; host or cells: Sf9 insect cells (baculovirus)
# T6 sequence (Q02763 23-1124): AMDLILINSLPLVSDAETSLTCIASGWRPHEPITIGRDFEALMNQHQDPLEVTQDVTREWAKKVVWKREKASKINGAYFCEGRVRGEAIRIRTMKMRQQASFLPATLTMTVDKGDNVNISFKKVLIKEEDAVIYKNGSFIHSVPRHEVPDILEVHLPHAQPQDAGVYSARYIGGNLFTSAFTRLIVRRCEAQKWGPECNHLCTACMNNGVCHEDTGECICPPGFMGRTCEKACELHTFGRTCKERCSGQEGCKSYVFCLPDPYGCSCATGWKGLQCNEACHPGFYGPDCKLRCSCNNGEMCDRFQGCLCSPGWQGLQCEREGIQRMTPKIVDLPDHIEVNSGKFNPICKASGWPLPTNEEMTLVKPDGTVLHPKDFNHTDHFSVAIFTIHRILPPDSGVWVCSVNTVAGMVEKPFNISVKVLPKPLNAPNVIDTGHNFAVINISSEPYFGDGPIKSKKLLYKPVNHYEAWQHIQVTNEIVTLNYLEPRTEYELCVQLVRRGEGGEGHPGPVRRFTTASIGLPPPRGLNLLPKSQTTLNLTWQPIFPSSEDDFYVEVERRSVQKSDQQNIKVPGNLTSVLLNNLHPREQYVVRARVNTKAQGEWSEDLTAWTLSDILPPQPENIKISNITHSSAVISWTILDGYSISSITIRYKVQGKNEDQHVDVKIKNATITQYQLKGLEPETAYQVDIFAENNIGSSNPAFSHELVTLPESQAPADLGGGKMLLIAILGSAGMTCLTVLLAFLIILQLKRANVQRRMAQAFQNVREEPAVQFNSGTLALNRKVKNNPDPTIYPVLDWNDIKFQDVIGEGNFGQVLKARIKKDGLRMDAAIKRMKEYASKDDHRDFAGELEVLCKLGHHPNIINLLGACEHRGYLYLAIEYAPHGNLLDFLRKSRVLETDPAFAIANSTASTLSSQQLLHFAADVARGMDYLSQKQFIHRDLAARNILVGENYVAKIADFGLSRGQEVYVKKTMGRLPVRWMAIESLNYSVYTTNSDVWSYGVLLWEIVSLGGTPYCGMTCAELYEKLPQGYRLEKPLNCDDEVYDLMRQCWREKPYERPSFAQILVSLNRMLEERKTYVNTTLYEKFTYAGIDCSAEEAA
# Description: as §1, §2, §3
# EGF-R = target: T7, EGF-R (Homo sapiens, UniProt P00533); test: as above; format: biochemical; conditions: recombinant human kinase
# T7 construct: made in house; host or cells: Sf9 insect cells (baculovirus)
# T7 sequence (P00533 25-1210): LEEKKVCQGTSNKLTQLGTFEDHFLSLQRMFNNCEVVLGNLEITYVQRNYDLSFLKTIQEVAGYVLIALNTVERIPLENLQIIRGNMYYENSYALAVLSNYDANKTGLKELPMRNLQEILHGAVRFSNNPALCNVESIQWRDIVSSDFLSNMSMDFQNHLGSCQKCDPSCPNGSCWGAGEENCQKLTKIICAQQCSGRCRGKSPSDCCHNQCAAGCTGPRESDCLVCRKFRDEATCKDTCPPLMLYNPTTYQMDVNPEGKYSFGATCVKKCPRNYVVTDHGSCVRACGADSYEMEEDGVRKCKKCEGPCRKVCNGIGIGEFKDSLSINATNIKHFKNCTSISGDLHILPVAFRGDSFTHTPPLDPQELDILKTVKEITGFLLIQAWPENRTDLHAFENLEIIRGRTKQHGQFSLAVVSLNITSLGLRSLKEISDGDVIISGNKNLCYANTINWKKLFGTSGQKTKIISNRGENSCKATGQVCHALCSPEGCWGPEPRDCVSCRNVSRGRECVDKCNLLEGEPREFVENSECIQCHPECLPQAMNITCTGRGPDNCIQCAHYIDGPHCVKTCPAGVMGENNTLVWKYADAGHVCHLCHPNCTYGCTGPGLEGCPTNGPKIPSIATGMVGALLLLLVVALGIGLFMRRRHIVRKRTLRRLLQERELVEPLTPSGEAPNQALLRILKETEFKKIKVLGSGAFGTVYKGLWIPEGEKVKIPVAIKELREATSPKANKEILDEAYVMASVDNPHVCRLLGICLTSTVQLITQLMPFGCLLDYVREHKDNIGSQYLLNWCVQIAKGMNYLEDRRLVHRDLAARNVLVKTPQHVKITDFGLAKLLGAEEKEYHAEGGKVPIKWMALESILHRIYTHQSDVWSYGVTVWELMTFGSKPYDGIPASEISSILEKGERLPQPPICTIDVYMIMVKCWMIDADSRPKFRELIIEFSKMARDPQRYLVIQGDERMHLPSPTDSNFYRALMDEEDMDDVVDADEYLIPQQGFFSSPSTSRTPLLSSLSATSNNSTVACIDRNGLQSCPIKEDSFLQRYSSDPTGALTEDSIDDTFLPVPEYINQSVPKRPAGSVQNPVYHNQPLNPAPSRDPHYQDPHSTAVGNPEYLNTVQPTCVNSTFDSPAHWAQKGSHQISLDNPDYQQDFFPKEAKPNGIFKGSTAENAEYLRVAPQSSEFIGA
# Description: as §1, §2, §3
# VEGF-R3 = target: T8, VEGF-R3 (Homo sapiens, UniProt P35916); test: as above; format: biochemical; conditions: recombinant human kinase
# T8 construct: made in house; host or cells: Sf9 insect cells (baculovirus)
# Description: as §1, §2, §3
# PDGF-Rβ [4] = target: T1, PDGF-Rβ; test: Cellular Receptor Tyrosine Kinase Assay (autophosphorylation, sandwich ELISA); format: cell-based; parameters: host or cells: unnamed cell line; conditions: ligand-induced receptor autophosphorylation in cells
# Description: (§4) The effect of thiazole derivatives was tested by determining the inhibition of different receptor tyrosine kinases (RTKs) in various cell lines which expressed the following growth factor receptors: EGF-R, PDGF-R, TIE2, IGF-1R, EPHB4, and VEGF-R2. Receptor autophosphorylation was induced by specific ligands for each receptor. […] Test compounds were applied to cells prior to stimulation. Cells were lysed using a standard lysis buffer preserving the distinct phosphoprotein levels. RTK-phosphorylation was quantified via sandwich ELISA using receptor-specific capture antibodies and a phosphotyrosine antibody.
# (§5) Sigmoidal inhibitor curves based on relative inhibition compared with phosphorylation levels under high control conditions were generated which allowed the determination of IC50 values for each test compound.
# Target sequence in this assay (P09619 33-1106, species assumed): as the sequence (P09619 33-1106) above
# VEGF-R2 [5] = target: T2, VEGF-R2; test: as above; format: cell-based; parameters: host or cells: unnamed cell line; conditions: ligand-induced receptor autophosphorylation in cells
# Description: as §4, §5
# Aurora B [6] = target: T3, Aurora B; test: Cellular Aurora-B Kinase Assay (endoreduplication of genomic DNA, PI/FACS); format: cell-based; parameters: endogenous in cells; host or cells: HT29 colon carcinoma cells; conditions: HT29 colon-carcinoma cells, 3 days treatment, EndoR-population
# Description: The effect of thiazole derivatives was tested in a cellular Aurora-B assay by measuring the effect of the test compounds on the endoreduplication (EndoR) of genomic DNA. Endoreduplication is detectable in cells as DNA-content higher then 4 n. Propidium Iodine (PI) was used to quantify the DNA content using a fluorescence activated cell sorter (FACS).
# In the experiment, HT29 colon-carcinoma cells were treated with test compounds at different concentrations for 3 days. On day 5 cells were harvested and fixed in methanol. On day 6 cells were rehydrated and incubated with RNAse A and PI. Incorporated PI was detected by FACS measuring fluorescence emission at 650 nm upon excitation at 488 nm. For each compound concentration the percentage of EndoR-population as compared to the whole cell population was determined. For estimation of IC50 values of Aurora-B inhibition the percentages of EndoR-populations were plotted versus compound concentrations.
# KIT = target: T9, KIT (Homo sapiens, UniProt P10721); test: In vitro protein kinase assay (radioisotopic 33P, FlashPlate); format: biochemical; conditions: recombinant human kinase
# T9 construct: made in house; host or cells: Sf9 insect cells (baculovirus)
# Description: as §1, §2, §3
# PDGF-Rα = target: T10, PDGF-Rα (Homo sapiens, UniProt P16234); test: as above; format: biochemical; conditions: recombinant human kinase
# T10 construct: made in house; host or cells: Sf9 insect cells (baculovirus)
# Description: as §1, §2, §3
# TRK-A = target: T11, TRK-A (Homo sapiens, UniProt P04629); test: as above; format: biochemical; conditions: recombinant human kinase
# T11 construct: made in house; host or cells: Sf9 insect cells (baculovirus)
# Description: as §1, §2, §3
# LCK = target: T12, LCK (Homo sapiens, UniProt P06239); test: as above; format: biochemical; conditions: recombinant human kinase
# T12 construct: made in house; host or cells: Sf9 insect cells (baculovirus)
# Description: as §1, §2, §3
# RET = target: T13, RET (Homo sapiens, UniProt P07949); test: as above; format: biochemical; conditions: recombinant human kinase
# T13 construct: made in house; host or cells: Sf9 insect cells (baculovirus)
# Description: as §1, §2, §3
# IRAK4 = target: T14, IRAK4 (Homo sapiens, UniProt Q9NWZ3); test: as above; format: biochemical; conditions: recombinant human kinase
# T14 construct: made in house; host or cells: Sf9 insect cells (baculovirus)
# T14 sequence (Q9NWZ3 1-460): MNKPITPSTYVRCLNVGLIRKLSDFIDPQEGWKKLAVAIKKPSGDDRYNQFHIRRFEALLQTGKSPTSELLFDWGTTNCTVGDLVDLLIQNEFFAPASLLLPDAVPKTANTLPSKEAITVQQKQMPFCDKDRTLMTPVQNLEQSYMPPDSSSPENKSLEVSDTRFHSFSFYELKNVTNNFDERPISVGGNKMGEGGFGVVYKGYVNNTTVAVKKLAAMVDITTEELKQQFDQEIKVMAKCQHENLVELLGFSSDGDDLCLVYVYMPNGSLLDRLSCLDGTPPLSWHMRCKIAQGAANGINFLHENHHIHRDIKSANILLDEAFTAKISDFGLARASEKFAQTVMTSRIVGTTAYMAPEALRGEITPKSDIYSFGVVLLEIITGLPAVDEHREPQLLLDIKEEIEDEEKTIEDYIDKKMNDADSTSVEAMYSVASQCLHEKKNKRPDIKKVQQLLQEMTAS
# Description: as §1, §2, §3
# VEGF-R1 = target: T15, VEGF-R1 (Homo sapiens, UniProt P17948); test: as above; format: biochemical; conditions: recombinant human kinase
# T15 construct: made in house; host or cells: Sf9 insect cells (baculovirus)
# Description: as §1, §2, §3
SMILES,IC50 (PDGF-Rβ [1]) [nM],IC50 (VEGF-R2 [2]) [nM],IC50 (Aurora B [3]) [nM],IC50 (FLT3) [nM],IC50 (Aurora A) [nM],IC50 (TIE2) [nM],IC50 (EGF-R) [nM],IC50 (VEGF-R3) [nM],IC50 (PDGF-Rβ [4]) [nM],IC50 (VEGF-R2 [5]) [nM],IC50 (Aurora B [6]) [nM],IC50 (KIT) [nM],IC50 (PDGF-Rα) [nM],IC50 (TRK-A) [nM],IC50 (LCK) [nM],IC50 (RET) [nM],IC50 (IRAK4) [nM],IC50 (VEGF-R1) [nM]
"COc1cc2ncnc(Nc3ncc(CCC(=O)Nc4ccc(F)cc4)s3)c2cc1OC [Compound 8, 3-(2-(6,7-dimethoxyquinazolin-4-ylamino)thiazol-5-yl)-N-(4-fluorophenyl)propanamide]",27000,960,2300,5400,6000,14000,61000,1100,–,–,–,–,–,–,–,–,–,–
"COC(=O)CCc1cnc(Nc2ncnc3cc(OC)c(OC)cc23)s1 [Compound 3, 3-[2-(6,7-dimethoxy-quinazolin-4-ylamino)-thiazol-5-yl]-propionic acid methyl ester]",11000,390,2400,8900,990,3400,4000,560,–,–,–,–,–,–,–,–,–,–
"COc1cc2c(Nc3ncc(CCC(=O)Nc4ccc(F)cc4)s3)ncnc2cc1OCCCN1CCCC1 [Compound 9, N-(4-fluorophenyl)-3-(2-(6-methoxy-7-(3-(pyrrolidin-1-yl)propoxy)quinazolin-4-ylamino)thiazol-5-yl)propanamide]",1100,96,470,600,710,430,10000,110,–,–,–,110,1000,430,2300,880,2200,640
"COc1cc2c(Nc3ncc(CCC(=O)Nc4cccc(F)c4)s3)ncnc2cc1OCCCN1CCCC1 [Compound 5, N-(3-fluoro-phenyl)-3-{2-[6-methoxy-7-(3-pyrrolidin-1-yl-propoxy)-quinazolin-4-ylamino]-thiazol-5-yl}-propionamide]",560,65,610,380,400,360,29000,74,–,–,–,–,–,–,–,–,–,–

# Now from value to compound:
IC50 (PDGF-Rβ [1]) [nM],IC50 (VEGF-R2 [2]) [nM],IC50 (Aurora B [3]) [nM],IC50 (FLT3) [nM],IC50 (Aurora A) [nM],IC50 (TIE2) [nM],IC50 (EGF-R) [nM],IC50 (VEGF-R3) [nM],IC50 (PDGF-Rβ [4]) [nM],IC50 (VEGF-R2 [5]) [nM],IC50 (Aurora B [6]) [nM],IC50 (KIT) [nM],IC50 (PDGF-Rα) [nM],IC50 (TRK-A) [nM],IC50 (LCK) [nM],IC50 (RET) [nM],IC50 (IRAK4) [nM],IC50 (VEGF-R1) [nM],SMILES
41000,1500,2900,25000,1300,21000,43000,1100,–,–,–,–,–,–,–,–,–,–,"COc1cc2ncnc(Nc3ncc(CCC(=O)Nc4cccc(F)c4)s3)c2cc1OC [Compound 7, 3-(2-(6,7-dimethoxyquinazolin-4-ylamino)thiazol-5-yl)-N-(3-fluorophenyl)propanamide]"
11000,2600,360,5500,100,900,–,2200,1100,14000,1100,–,–,–,–,–,–,–,"COc1cc2c(Nc3ncc(CCNC(=O)c4cccc(F)c4)s3)ncnc2cc1OCCCN1CCCC1 [Compound 1, 3-fluoro-N-(2-{2-[6-methoxy-7-(3-pyrrolidin-1-yl-propoxy)-quinazolin-4-ylamino]-thiazol-5-yl}-ethyl)-benzamide]"
15000,2000,620,11000,160,1000,20000,2800,–,–,–,–,–,–,–,–,–,–,"COc1cc2c(Nc3ncc(CCNC(=O)c4ccccc4)s3)ncnc2cc1OCCCN1CCCC1 [Compound 2, N-(2-{2-[6-methoxy-7-(3-pyrrolidin-1-yl-propoxy)-quinazolin-4-ylamino]-thiazol-5-yl}-ethyl)-benzamide]"
